Measurements taken from patent publication US8927571B2, “Pyrido[4,3-B]indoles and methods of use” (Medivation Technologies, Inc., priority 2009, dated 2015).

Experiments:
[1] = target: human recombinant histamine H1 receptor (Homo sapiens, UniProt P35367); test: Histamine H1 radioligand binding assay ([3H]Pyrilamine); conditions: percent inhibition of specific binding of […] [3H]Pyrilamine; compounds screened at 1 μM or lower
Experimental: To evaluate in radioligand binding assays the activity of compounds of the invention, human recombinant histamine H1 receptor expressed in Chinese hamster ovary (CHO) cells (De Backer, M. D. et al., Biochem. Biophys. Res. Comm. 197(3):1601, 1993) in a modified Tris-HCl buffer (50 mM Tris-HCl, pH 7.4, 2 mM MgCl2, 100 mM NaCl, 250 mM Sucrose) was used. Compounds of the invention were incubated with 1.2 nM [^3H]Pyrilamine for 180 min at 25° C. Non-specific binding was estimated in the presence of 1 μM pyrilamine. Receptor proteins were filtered and washed, the filters were then counted to determine [^3H]Pyrilamine specifically bound. Compounds were screened at 1 μM or lower, using 1% DMSO as vehicle. Biochemical assay results are presented as the percent inhibition of specific binding in Table 2.

[2] = target: T1, human recombinant serotonin (5-Hydroxytryptamine) 5-HT6 receptor (Homo sapiens, UniProt P50406); test: Serotonin 5-HT6 radioligand binding assay ([3H]LSD); conditions: 1.5 nM [3H]LSD, read-out: Percent Inhibition of ligand binding, Serotonin (1 μM) 5-HT6
T1 construct: expressed in transfected cells; host or cells: human HeLa cells
Experimental: Compounds of the invention were incubated with 1.5 nM [3H]Lysergic acid diethylamide (LSD) for 120 min at 37° C. […] Receptor proteins were filtered and washed, the filters were then counted to determine [3H]LSD specifically bound. Compounds were screened at 1 μM or lower, using 1% DMSO as vehicle. Biochemical assay results are presented as the percent inhibition of specific binding in Table 4.

[3] = target: T2, human recombinant histamine H2 receptor (Homo sapiens, UniProt P25021); test: Histamine H2 radioligand binding assay ([125I]Aminopotentidine); conditions: percent inhibition of specific binding of 0.1 nM [125I]Aminopotentidine; compounds screened at 1 μM or lower
T2 construct: expressed in transfected cells; host or cells: Chinese hamster ovary (CHO) K1 cells
Experimental: To evaluate in radioligand binding assays the activity of compounds of the invention, human recombinant histamine H2 receptor expressed in Chinese hamster ovary (CHO) K1 cells (Ruat, M., Proc. Natl. Acad. Sci. USA. 87(5):1658, 1990) in a 50 mM Phosphate buffer, pH 7.4 was used. Compounds of the invention were incubated with 0.1 nM [^125I]Aminopotentidine for 120 min at 25° C. Non-specific binding was estimated in the presence of 3 μM Tiotidine. Receptor proteins were filtered and washed, the filters were then counted to determine [^125I]Aminopotentidine specifically bound. Compounds were screened at 1 μM or lower, using 1% DMSO as vehicle. Biochemical assay results are presented as the percent inhibition of specific binding in Table 2.

[4] = target: T3, human recombinant adrenergic α1D receptor (Homo sapiens, UniProt P25100); test: Adrenergic α1D radioligand binding assay ([3H]Prozosin); conditions: 0.6 nM [3H]Prozosin, read-out: Percent Inhibition of ligand binding, Adrenergic (1 μM) α1D
T3 construct: expressed in transfected cells; host or cells: human embryonic kidney (HEK-293) cells
T3 sequence (P25100 1-572): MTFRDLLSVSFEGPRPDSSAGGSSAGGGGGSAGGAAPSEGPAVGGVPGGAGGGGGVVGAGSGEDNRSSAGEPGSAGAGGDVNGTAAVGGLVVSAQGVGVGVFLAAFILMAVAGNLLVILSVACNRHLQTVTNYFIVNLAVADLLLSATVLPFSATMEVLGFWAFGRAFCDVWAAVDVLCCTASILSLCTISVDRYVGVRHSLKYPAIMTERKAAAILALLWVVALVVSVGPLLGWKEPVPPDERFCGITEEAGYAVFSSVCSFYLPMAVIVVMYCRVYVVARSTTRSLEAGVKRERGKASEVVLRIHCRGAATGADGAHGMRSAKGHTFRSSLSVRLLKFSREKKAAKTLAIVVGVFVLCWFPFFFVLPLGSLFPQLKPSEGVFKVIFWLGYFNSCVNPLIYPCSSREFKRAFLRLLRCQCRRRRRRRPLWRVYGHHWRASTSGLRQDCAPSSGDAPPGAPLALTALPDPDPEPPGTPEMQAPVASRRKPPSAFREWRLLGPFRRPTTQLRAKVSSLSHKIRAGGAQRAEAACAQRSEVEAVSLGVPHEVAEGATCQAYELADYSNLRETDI
Experimental: Compounds of invention were incubated with 0.6 nM [^3H]Prozosin for 60 min at 25° C. Non-specific binding was estimated in the presence of 10 μM phentolamine. Receptor proteins were filtered and washed, the filters were then counted to determine [^3H]Prozosin specifically bound. Compounds were screened at 1 μM or lower, using 1% DMSO as vehicle. Biochemical assay results are presented as the percent inhibition of specific binding in Table 3.

[5] = target: T4, human recombinant serotonin (5-Hydroxytryptamine) 5-HT2C receptor (Homo sapiens, UniProt P28335); test: Serotonin 5-HT2C radioligand binding assay ([3H]Mesulergine); conditions: 1 nM [3H]Mesulergine, read-out: Percent Inhibition of ligand binding, Serotonin (1 μM) 5-HT2C
T4 construct: expressed in transfected cells; host or cells: Chinese hamster ovary (CHO-K1) cells
T4 sequence (P28335 33-458): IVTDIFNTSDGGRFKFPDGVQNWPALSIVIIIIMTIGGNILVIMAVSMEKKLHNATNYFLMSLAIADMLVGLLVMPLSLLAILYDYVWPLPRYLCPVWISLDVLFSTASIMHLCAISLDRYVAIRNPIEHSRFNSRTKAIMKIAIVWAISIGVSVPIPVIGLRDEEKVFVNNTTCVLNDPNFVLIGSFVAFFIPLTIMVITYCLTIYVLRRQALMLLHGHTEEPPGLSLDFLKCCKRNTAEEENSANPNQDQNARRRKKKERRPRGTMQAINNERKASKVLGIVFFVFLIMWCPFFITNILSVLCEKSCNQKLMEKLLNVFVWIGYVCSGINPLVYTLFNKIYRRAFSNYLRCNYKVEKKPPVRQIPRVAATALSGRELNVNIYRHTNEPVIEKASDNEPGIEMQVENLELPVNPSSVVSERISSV
Experimental: Compounds of the invention were incubated with 1 nM [^3H]Mesulergine for 60 min at 25° C. Non-specific binding was estimated in the presence of 1 μM Mianserin. Receptor proteins were filtered and washed, the filters were then counted to determine [^3H]Mesulergine specifically bound. Compounds were screened at 1 μM or lower, using 1% DMSO as vehicle. Biochemical assay results are presented as the percent inhibition of specific binding in Table 4.

T2 sequence (P25021 whole entry): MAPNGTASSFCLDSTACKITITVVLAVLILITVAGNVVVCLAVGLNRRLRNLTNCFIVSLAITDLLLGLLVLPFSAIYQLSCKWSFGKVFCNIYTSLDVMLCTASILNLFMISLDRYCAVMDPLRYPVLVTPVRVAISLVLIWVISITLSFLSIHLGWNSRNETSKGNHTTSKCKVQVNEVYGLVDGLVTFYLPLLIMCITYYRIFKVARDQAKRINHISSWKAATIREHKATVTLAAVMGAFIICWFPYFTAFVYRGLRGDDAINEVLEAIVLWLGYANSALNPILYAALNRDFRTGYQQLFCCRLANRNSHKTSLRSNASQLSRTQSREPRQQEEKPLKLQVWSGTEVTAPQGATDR
T1 sequence (P50406 whole entry): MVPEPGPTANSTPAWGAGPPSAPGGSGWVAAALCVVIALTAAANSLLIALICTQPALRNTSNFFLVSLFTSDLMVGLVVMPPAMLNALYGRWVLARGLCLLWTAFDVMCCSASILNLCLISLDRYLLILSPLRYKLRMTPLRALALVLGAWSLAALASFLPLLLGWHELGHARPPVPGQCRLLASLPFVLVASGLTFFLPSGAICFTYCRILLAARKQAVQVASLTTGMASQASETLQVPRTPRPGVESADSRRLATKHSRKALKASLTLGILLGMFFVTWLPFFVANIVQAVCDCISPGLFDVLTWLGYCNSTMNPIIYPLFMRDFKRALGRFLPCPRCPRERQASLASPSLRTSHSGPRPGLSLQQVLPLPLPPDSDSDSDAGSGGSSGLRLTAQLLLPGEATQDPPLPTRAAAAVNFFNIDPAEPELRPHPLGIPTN
Sequence of human recombinant histamine H1 receptor (P35367 whole entry): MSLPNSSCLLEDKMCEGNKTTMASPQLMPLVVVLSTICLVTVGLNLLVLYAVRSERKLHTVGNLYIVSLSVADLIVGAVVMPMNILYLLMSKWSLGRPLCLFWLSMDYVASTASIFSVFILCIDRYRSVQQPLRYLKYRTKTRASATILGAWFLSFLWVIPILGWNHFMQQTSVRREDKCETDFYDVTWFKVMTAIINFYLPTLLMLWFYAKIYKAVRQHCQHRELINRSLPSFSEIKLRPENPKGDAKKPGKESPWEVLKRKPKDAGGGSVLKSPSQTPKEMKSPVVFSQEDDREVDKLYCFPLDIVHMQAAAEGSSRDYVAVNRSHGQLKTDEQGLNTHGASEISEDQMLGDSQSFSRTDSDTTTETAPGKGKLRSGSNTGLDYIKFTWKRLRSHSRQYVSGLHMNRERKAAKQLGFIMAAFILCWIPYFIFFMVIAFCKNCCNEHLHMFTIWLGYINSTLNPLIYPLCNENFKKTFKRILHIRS

| Structure (SMILES) | Binding Data (% Inhibition) Histamine Binding H1 [1] | inhibition at 1 µM [2] | Binding Data (% Inhibition) Histamine Binding H2 [3] | inhibition at 1 µM [4] | inhibition at 1 µM [5] |
| --- | --- | --- | --- | --- | --- |
| Cc1ccc2c(c1)c1c(n2CC2(c3ccccc3)OCCO2)CCN(C)C1 [Compound 2, 2,8-dimethyl-5-((2-phenyl-1,3-dioxolan-2-yl)methyl)-2,3,4,5-tetrahydro-1H-pyrido[4,3-b]indole] | 71% | 102% | 89% | 56% | 96% |
| Cc1ccc2c(c1)c1c(n2CC2(c3ccc(F)cc3)OCCO2)CCN(C)C1 [Compound 3, 5-((2-(4-fluorophenyl)-1,3-dioxolan-2-yl)methyl)-2,8-dimethyl-2,3,4,5-tetrahydro-1H-pyrido[4,3-b]indole] | 86% | 103% | 96% | 60% | 93% |
| CN1CCc2c(c3cc(Cl)ccc3n2CC2(c3ccc(F)cc3)OCCO2)C1 [Compound 4, 8-chloro-5-((2-(4-fluorophenyl)-1,3-dioxolan-2-yl)methyl)-2-methyl-2,3,4,5-tetrahydro-1H-pyrido[4,3-b]indole] | 87% | 104% | 96% | 35% | 101% |
| CN1CCc2c(c3cc(Cl)ccc3n2CC2(c3ccc(Cl)cc3)OCCO2)C1 [Compound 5, 8-chloro-5-((2-(4-chlorophenyl)-1,3-dioxolan-2-yl)methyl)-2-methyl-2,3,4,5-tetrahydro-1H-pyrido[4,3-b]indole] | 90% | 85% | 98% | 16% | 100% |
| CCOC(=O)CC(Cn1c2c(c3cc(C)ccc31)CN(C)CC2)c1ccc(F)cc1 (stereo not shown) [Compound 6, ethyl 4-(2,8-dimethyl-3,4-dihydro-1H-pyrido[4,3-b]indol-5(2H)-yl)-3-(4-fluorophenyl)butanoate] |  | 102% | 86% | 106% | 93% |
| Cc1ccc2c(c1)c1c(n2CC(CC(=O)O)c2ccc(F)cc2)CCN(C)C1 (stereo not shown) [Compound 7, 4-(2,8-dimethyl-3,4-dihydro-1H-pyrido[4,3-b]indol-5(2H)-yl)-3-(4-fluorophenyl)butanoic acid] | −1% | -3% | 5% | 21% | 14% |
| CNC(=O)CC(Cn1c2c(c3cc(C)ccc31)CN(C)CC2)c1ccc(F)cc1 (stereo not shown) [Compound 8, 4-(2,8-dimethyl-3,4-dihydro-1H-pyrido[4,3-b]indol-5(2H)-yl)-3-(4-fluorophenyl)-N-methylbutanamide] | 6% | 63% | 22% | 87% | 95% |
